Results taken from BigSolDB 2.1.

Fc1c(I)c(F)c(I)c(F)c1I
Conditions | solubility (mole fraction)
in 1,2-dichloroethane, 290.15 K | 2.33e-05
in 1,2-dichloroethane, 295.15 K | 4.22e-05
in 1,2-dichloroethane, 299.15 K | 6.13e-05
in 1,2-dichloroethane, 302.15 K | 8.17e-05
in 1,2-dichloroethane, 305.15 K | 0.000106
in 1,2-dichloroethane, 308.15 K | 0.000131
in 1,2-dichloroethane, 311.15 K | 0.000153
in 1,2-dichloroethane, 314.15 K | 0.000181
in 1,2-dichloroethane, 317.15 K | 0.000207
in 1,2-dichloroethane, 320.15 K | 0.000224
in 1,2-dichloroethane, 325.15 K | 0.000242
in 1,2-dichloroethane, 330.15 K | 0.000263
in 1,4-dioxane, 290.15 K | 0.00028
in 1,4-dioxane, 295.15 K | 0.000334
in 1,4-dioxane, 299.15 K | 0.000387
in 1,4-dioxane, 302.15 K | 0.000413
in 1,4-dioxane, 305.15 K | 0.000456
in 1,4-dioxane, 308.15 K | 0.000506
in 1,4-dioxane, 311.15 K | 0.000553
in 1,4-dioxane, 314.15 K | 0.000593
in 1,4-dioxane, 317.15 K | 0.000641
in 1,4-dioxane, 320.15 K | 0.000697
in 1,4-dioxane, 325.15 K | 0.000773
in 1,4-dioxane, 330.15 K | 0.00088
in THF, 290.25 K | 0.00478
in THF, 295.45 K | 0.00497
in THF, 299.85 K | 0.00511
in THF, 305.15 K | 0.00534
in THF, 310.25 K | 0.00555
in THF, 315.35 K | 0.00578
in THF, 320.15 K | 0.00601
in THF, 326.15 K | 0.0063
in THF, 330.35 K | 0.00648
in acetone, 290.15 K | 2.02e-05
in acetone, 295.15 K | 3.22e-05
in acetone, 299.15 K | 4.55e-05
in acetone, 302.15 K | 5.89e-05
in acetone, 305.15 K | 7.48e-05
in acetone, 308.15 K | 9.01e-05
in acetone, 311.15 K | 0.000107
in acetone, 314.15 K | 0.000127
in acetone, 317.15 K | 0.000144
in acetone, 320.15 K | 0.000162
in acetone, 325.15 K | 0.000182
in acetone, 330.15 K | 0.000202
in acetonitrile, 290.35 K | 0.00382
in acetonitrile, 295.85 K | 0.00415
in acetonitrile, 301.55 K | 0.00469
in acetonitrile, 306.95 K | 0.00536
in acetonitrile, 310.15 K | 0.00568
in acetonitrile, 316.95 K | 0.00636
in acetonitrile, 321.55 K | 0.00722
in acetonitrile, 327.35 K | 0.00842
in acetonitrile, 332.15 K | 0.00917
in ethanol, 290.15 K | 0.00057
in ethanol, 295.15 K | 0.000735
in ethanol, 299.15 K | 0.000874
in ethanol, 302.15 K | 0.000962
in ethanol, 305.15 K | 0.00108
in ethanol, 308.15 K | 0.00119
in ethanol, 311.15 K | 0.00128
in ethanol, 314.15 K | 0.00138
in ethanol, 317.15 K | 0.00149
in ethanol, 320.15 K | 0.0016
in ethanol, 325.15 K | 0.00174
in ethanol, 330.15 K | 0.00193
in ethyl acetate, 290.15 K | 0.000485
in ethyl acetate, 295.15 K | 0.000621
in ethyl acetate, 299.15 K | 0.000756
in ethyl acetate, 302.15 K | 0.00086
in ethyl acetate, 305.15 K | 0.000976
in ethyl acetate, 308.15 K | 0.00107
in ethyl acetate, 311.15 K | 0.00118
in ethyl acetate, 314.15 K | 0.00128
in ethyl acetate, 317.15 K | 0.00136
in ethyl acetate, 320.15 K | 0.00145
in ethyl acetate, 325.15 K | 0.00155
in ethyl acetate, 330.15 K | 0.00167
in isopropanol, 291.25 K | 0.00214
in isopropanol, 296.35 K | 0.00291
in isopropanol, 301.45 K | 0.00369
in isopropanol, 306.45 K | 0.00432
in isopropanol, 311.45 K | 0.00523
in isopropanol, 316.55 K | 0.00598
in isopropanol, 321.45 K | 0.00681
in isopropanol, 326.85 K | 0.00745
in isopropanol, 331.55 K | 0.00802
in methanol, 290.15 K | 2.24e-05
in methanol, 295.15 K | 3.71e-05
in methanol, 299.15 K | 5.15e-05
in methanol, 302.15 K | 6.58e-05
in methanol, 305.15 K | 8.12e-05
in methanol, 308.15 K | 9.61e-05
in methanol, 311.15 K | 0.00011
in methanol, 314.15 K | 0.000121
in methanol, 317.15 K | 0.000131
in methanol, 320.15 K | 0.00014
in methanol, 325.15 K | 0.00015
in methanol, 330.15 K | 0.000154
in n-hexane, 289.25 K | 0.0059
in n-hexane, 293.55 K | 0.00643
in n-hexane, 298.85 K | 0.00732
in n-hexane, 303.85 K | 0.00818
in n-hexane, 308.95 K | 0.00908
in n-hexane, 313.75 K | 0.0101
in n-hexane, 318.55 K | 0.0116
in n-hexane, 324.25 K | 0.0134
in n-hexane, 329.35 K | 0.0149
in n-propanol, 291.25 K | 0.00216
in n-propanol, 296.35 K | 0.00274
in n-propanol, 301.35 K | 0.00325
in n-propanol, 306.35 K | 0.00366
in n-propanol, 311.65 K | 0.00417
in n-propanol, 316.55 K | 0.00482
in n-propanol, 321.55 K | 0.00531
in n-propanol, 326.45 K | 0.00585
in n-propanol, 331.45 K | 0.00643
in toluene, 290.15 K | 0.000169
in toluene, 295.15 K | 0.000217
in toluene, 299.15 K | 0.000261
in toluene, 302.15 K | 0.000294
in toluene, 305.15 K | 0.000329
in toluene, 308.15 K | 0.000368
in toluene, 311.15 K | 0.000404
in toluene, 314.15 K | 0.000444
in toluene, 317.15 K | 0.000479
in toluene, 320.15 K | 0.000515
in toluene, 325.15 K | 0.000573
in toluene, 330.15 K | 0.000623
